From patent US10383880B2 (Reset Therapeutics, Inc., priority 2012, dated 2019)

test system: Per2-dLuc U2OS reporter cells; test: Per2 assay for evaluating the potency of test compounds (high-throughput circadian assay); type: cell-based; details: Homo sapiens, U2OS, stable U2OS reporter cells harboring Per2-dLuc; luminescence monitored over 4-5 days at 35° C.
Outline: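 Compounds (0.5% DMSO final) were added right after serum-shock synchronization of Per2-dLuc U2OS reporter cells in minimal medium containing 1.0 mM beetle luciferin. Reporter luminescence was followed at 35 °C for 4–5 days to extract rhythm period, amplitude and phase, and EC50 values were obtained from these.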

Row | Structure (SMILES) | EC50
1 | COCCN(CC(O)Cn1c2ccc(F)cc2c2cc(F)ccc21)S(C)(=O)=O (centres unmarked) [Compound 90, N-(3-(3,6-Difluoro-9H-carbazol-9-yl)-2-hydroxypropyl)-N-(2-methoxyethyl)methanesulfonamide] | 406 nM
2 | CC(O)(CN(Cc1ccco1)S(C)(=O)=O)Cn1c2ccccc2c2ccccc21 (centres unmarked) [Compound 240, N-(3-(9H-Carbazol-9-yl)-2-hydroxy-2-methylpropyl)-N-(furan-2-yl-methyl)methane-sulfonamide] | 1060 nM
3 | CC(C)(C(O)Cn1c2ccc(F)cc2c2cc(F)ccc21)N1CCCS1(=O)=O (centres unmarked) [Compound 244, 2-(4-(3,6-Difluoro-9H-carbazol-9-yl)-3-hydroxy-2-methylbutan-2-yl)isothiazolidine-1,1-dioxide] | 57 nM
4 | O=S1(=O)CCCCN1CC(O)Cn1c2ccccc2c2ccccc21 (centres unmarked) [Compound 33, N-(3-(9H-Carbazol-9-yl)-2-hydroxypropyl)-1,2-thiazinane 1,1-dioxide] | 35 nM
5 | CC1CCN(CC(C)(O)Cn2c3ccc(F)cc3c3cc(F)ccc32)S1(=O)=O (centres unmarked) [Compound 179, 2-(3-(3,6-Difluoro-9H-carbazol-9-yl)-2-hydroxy-2-methylpropyl)-5-methylisothiazolidine-1,1-dioxide] | 1200 nM
6 | CC(O)(CN(c1ccccc1)S(C)(=O)=O)Cn1c2ccc(F)cc2c2cc(F)ccc21 (centres unmarked) [Compound 215, N-(3-(3,6-Difluoro-9H-carbazol-9-yl)-2-hydroxy-2-methylpropyl)-N-phenylmethanesulfonamide] | 7880 nM
7 | CCCN(CC(C)(O)Cn1c2ccc(F)cc2c2cc(F)ccc21)S(C)(=O)=O (centres unmarked) [Compound 151, N-(3-(3,6-Difluoro-9H-carbazol-9-yl)-2-hydroxy-2-methylpropyl)-N-propylmethanesulfonamide] | 2260 nM
8 | CS(=O)(=O)N(CC(O)Cn1c2ccccc2c2ccccc21)c1ccon1 (centres unmarked) [Compound 81, N-(3-(9H-Carbazol-9-yl)-2-hydroxypropyl)-N-(isoxazol-3-yl)methanesulfonamide] | 964 nM
9 | CC1CCCN(CC(O)Cn2c3ccccc3c3ccccc32)S1(=O)=O (centres unmarked) [Compound 111, N-(3-(9H-Carbazol-9-yl)-2-hydroxypropyl)-6-methyl-1,2-thiazinane-1,1-dioxide] | 84 nM
10 | CS(=O)(=O)NCC(O)Cn1c2ccccc2c2ccccc21 (centres unmarked) [Compound 113, N-(3-(9H-Carbazol-9-yl)-2-hydroxypropyl)methanesulfonamide] | 123 nM
11 | O=S1(=O)C(F)CCN1CC(O)Cn1c2ccc(F)cc2c2cc(F)ccc21 (centres unmarked) [Compound 183, 2-(3-(3,6-Difluoro-9H-carbazol-9-yl)-2-hydroxypropyl)-5-fluoroisothiazolidine-1,1-dioxide] | 53 nM
12 | CS(=O)(=O)N(CC(O)Cn1c2ccccc2c2ccccc21)C1(C(F)(F)F)CCC1 (centres unmarked) [Compound 146, N-(3-(9H-Carbazol-9-yl)-2-hydroxypropyl)-N-(1-(trifluoromethyl)cyclobutyl)methanesulfonamide] | 1160 nM
13 | CC(O)(CN1CCC(F)S1(=O)=O)Cn1c2ccc(F)cc2c2cc(F)ccc21 (centres unmarked) [Compound 184, 2-(3-(3,6-Difluoro-9H-carbazol-9-yl)-2-hydroxy-2-methylpropyl)-5-fluoroisothiazolidine-1,1-dioxide] | 155 nM
14 | CS(=O)(=O)CCN(CC(O)Cn1c2ccccc2c2ccccc21)S(C)(=O)=O (centres unmarked) [Compound 55, N-(3-(9H-Carbazol-9-yl)-2-hydroxypropyl)-N-(2-(methylsulfonyl)ethyl)methanesulfonamide] | 2310 nM
15 | CC(=O)Nc1ccc(N(CC(O)Cn2c3ccccc3c3ccccc32)S(C)(=O)=O)cc1 (centres unmarked) [Compound 29, N-(4-(N-(3-(9H-Carbazol-9-yl)-2-hydroxypropyl)methylsulfonamido)phenyl)acetamide] | 710 nM
16 | CC1(N(CC(O)Cn2c3ccc(F)cc3c3cc(F)ccc32)S(C)(=O)=O)CCC1 (centres unmarked) [Compound 186, N-(3-(3,6-Difluoro-9H-carbazol-9-yl)-2-hydroxypropyl)-N-(1-methylcyclobutyl)methanesulfonamide] | 83 nM
17 | O=S1(=O)N(CC(O)Cn2c3ccc(F)cc3c3cc(F)ccc32)CCC1(F)F (centres unmarked) [Compound 185, 2-(3-(3,6-Difluoro-9H-carbazol-9-yl)-2-hydroxypropyl)-5,5-difluoroisothiazolidine-1,1-dioxide] | 45 nM
18 | CCS(=O)(=O)N(Cc1ccco1)CC(O)Cn1c2ccccc2c2ccccc21 (centres unmarked) [Compound 2, N-(3-(9H-Carbazol-9-yl)-2-hydroxypropyl)-N-(furan-2-ylmethyl)ethanesulfonamide] | 742 nM
19 | CS(=O)(=O)N(CC(O)Cn1c2ccccc2c2ccccc21)C1CC1 (centres unmarked) [Compound 56, N-(3-(9H-Carbazol-9-yl)-2-hydroxypropyl)-N-cyclopropylmethanesulfonamide] | 128 nM
20 | CC(C)N(CC(O)Cn1c2ccccc2c2ccccc21)S(C)(=O)=O (centres unmarked) [Compound 46, N-(3-(9H-Carbazol-9-yl)-2-hydroxypropyl)-N-isopropylmethanesulfonamide] | 100 nM
21 | CS(=O)(=O)NCC(O)Cn1c2cc(F)ccc2c2ccc(F)cc21 (centres unmarked) [Compound 162, N-(3-(2,7-Difluoro-9H-carbazol-9-yl)-2-hydroxypropyl)methanesulfonamide] | 1990 nM
22 | COC1CN(CC(C)(O)Cn2c3ccc(F)cc3c3cc(F)ccc32)S(=O)(=O)C1 (centres unmarked) [Compound 182, 2-(3-(3,6-Difluoro-9H-carbazol-9-yl)-2-hydroxy-2-methylpropyl)-4-methoxyisothiazolidine-1,1-dioxide] | 241 nM
23 | COCc1ccc(N(CC(O)Cn2c3ccc(F)cc3c3cc(F)ccc32)S(C)(=O)=O)cc1 (centres unmarked) [Compound 209, N-(3-(3,6-Difluoro-9H-carbazol-9-yl)-2-hydroxypropyl)-N-(4-(methoxymethyl)phenyl)methanesulfonamide] | 4810 nM
24 | O=S(=O)(c1cn[nH]c1)N(Cc1ccco1)CC(O)Cn1c2ccccc2c2ccccc21 (centres unmarked) [Compound 5, N-(3-(9H-Carbazol-9-yl)-2-hydroxypropyl)-N-(furan-2-ylmethyl)-1H-pyrazole-4-sulfonamide] | 8190 nM
25 | O=S1(=O)CCCCN1CC(O)Cn1c2cccc(F)c2c2c(F)cccc21 (centres unmarked) [Compound 105, N-(3-(4,5-Difluoro-9H-carbazol-9-yl)-2-hydroxypropyl)-1,2-thiazinane 1,1-dioxide] | 5200 nM
26 | CC(O)(CN(C1(C)CC1)S(C)(=O)=O)Cn1c2ccc(F)cc2c2cc(F)ccc21 (centres unmarked) [Compound 189, N-(3-(3,6-Difluoro-9H-carbazol-9-yl)-2-hydroxy-2-methylpropyl)-N-(1-methylcyclopropyl)methanesulfonamide] | 1290 nM
27 | CC1CN(CC(C)(O)Cn2c3ccc(F)cc3c3cc(F)ccc32)S(=O)(=O)C1 (centres unmarked) [Compound 195, 2-(3-(3,6-Difluoro-9H-carbazol-9-yl)-2-hydroxy-2-methylpropyl)-4-methylisothiazolidine-1,1-dioxide] | 254 nM
28 | CC1(N(CC(O)Cn2c3ccc(F)cc3c3cc(F)ccc32)S(C)(=O)=O)CC1 (centres unmarked) [Compound 188, N-(3-(3,6-Difluoro-9H-carbazol-9-yl)-2-hydroxypropyl)-N-(1-methylcyclopropyl)methanesulfonamide] | 147 nM
29 | CS(=O)(=O)N(Cc1ccco1)CC(O)Cn1c2ccccc2c2cc(F)ccc21 (centres unmarked) [Compound 238, N-(3-(3-Fluoro-9H-carbazol-9-yl)-2-hydroxy-propyl)-N-(furan-2-yl-methyl)methane-sulfonanide] | 535 nM
